Structures can show the parent of a compound that is named as a salt.
Biological target: T1, SIRT1 (Homo sapiens, UniProt Q96EB6)
T1 sequence (Q96EB6 1-747): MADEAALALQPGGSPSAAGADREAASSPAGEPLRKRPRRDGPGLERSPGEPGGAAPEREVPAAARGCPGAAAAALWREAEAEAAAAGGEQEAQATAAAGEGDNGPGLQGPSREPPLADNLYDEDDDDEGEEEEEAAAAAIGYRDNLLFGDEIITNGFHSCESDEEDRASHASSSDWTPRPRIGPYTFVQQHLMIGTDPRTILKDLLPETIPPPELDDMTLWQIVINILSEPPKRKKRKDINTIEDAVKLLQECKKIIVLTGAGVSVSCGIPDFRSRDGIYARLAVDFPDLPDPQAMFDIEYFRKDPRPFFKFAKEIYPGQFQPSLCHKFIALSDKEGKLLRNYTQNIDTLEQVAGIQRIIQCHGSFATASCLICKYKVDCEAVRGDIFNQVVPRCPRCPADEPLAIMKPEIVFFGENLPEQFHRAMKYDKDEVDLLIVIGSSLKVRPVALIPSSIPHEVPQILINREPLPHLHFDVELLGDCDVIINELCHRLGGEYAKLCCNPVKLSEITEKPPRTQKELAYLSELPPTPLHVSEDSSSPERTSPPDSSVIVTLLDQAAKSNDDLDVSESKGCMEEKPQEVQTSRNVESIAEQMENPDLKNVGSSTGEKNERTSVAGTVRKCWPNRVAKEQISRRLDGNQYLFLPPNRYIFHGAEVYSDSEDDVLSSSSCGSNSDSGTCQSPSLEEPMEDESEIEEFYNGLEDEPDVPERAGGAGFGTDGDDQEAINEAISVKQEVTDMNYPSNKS
Assay: Trp mass spectrometry assay of SIRT1 activation
Type: biochemical
Conditions: Trp peptide assay; for TRP Activity (EC1.5): EC1.5 = concentration that results in 150% activation of SIRT1; for Emax: maximum activity relative to control (100%), read-out: TRP MAX RESP (percent maximum fold activation)
Excerpt: Mass spectrometry based assays were used to identify modulators of SIRT1 activity. […] The peptide was labeled with the fluorophore STMR (excitation 540 nm/emission 580 nm) at the C-terminus. The sequence of the peptide substrate was based on p53 with several modifications. In addition, the methionine residue naturally present in the sequence was replaced with the norleucine because the methionine may be susceptible to oxidation during synthesis and purification. The Trp based assay utilized a peptide having an amino acid residues as follows: Ac-R-H-K-K(Ac)-W-NH2 (SEQ ID NO: 2).
The Trp mass spectrometry assay was conducted as follows. 0.5 μM peptide substrate and 120 μM βNAD^+ were incubated with 10 nM SIRT1 for 25 minutes at 25° C. in a reaction buffer (50 mM HEPES pH 7.5, […], 1 mM DTT, 0.05% BSA). The SIRT1 protein was obtained by cloning the SirT1 gene into a T7-promoter containing vector, which was then expressed in BL21(DE3) bacterial cells and purified as described in further detail below. Test compound was added at varying concentrations to this reaction mixture and the resulting reactions were monitored. After the 25 minute incubation with SIRT1, 10 μL of 10% formic acid was added to stop the reaction. The resulting reactions were sealed and frozen for later mass spec analysis. The relative SIRT1 activity was then determined by measuring the amount of O-acetyl-ADP-ribose (OAADPR) formed (or, alternatively, the amount of deacetylated Trp peptide generated) by the NAD-dependent sirtuin deacetylation reaction in the presence of varying concentrations of the test compound versus control reactions lacking the test compound. The degree to which the test agent activated deacetylation by SIRT1 was expressed as EC1.5 (i.e., the concentration of compound required to increase SIRT1 activity by 50% over the control lacking test compound), and Percent Maximum Activation (i.e., the maximum activity relative to control (100%) obtained for the test compound).
This time point was the same as that used for test compounds and, within the linear range, the endpoint represents a change in velocity.
For the above assay, SIRT1 protein was expressed and purified as follows. The SirT1 gene was cloned into a T7-promoter containing vector and transformed into BL21(DE3). The protein was expressed by induction with 1 mM IPTG as an N-terminal His-tag fusion protein at 18° C. overnight and harvested at 30,000×g. Cells were lysed with lysozyme in lysis buffer (50 mM Tris-HCl, 2 mM Tris[2-carboxyethyl]phosphine (TCEP), 10 μM ZnCl2, 200 mM NaCl) and further treated with sonication for 10 min for complete lysis. The protein was purified over a Ni-NTA column (Amersham) and fractions containing pure protein were pooled, concentrated and run over a sizing column (Sephadex S200 26/60 global). The peak containing soluble protein was collected and run on an Ion-exchange column (MonoQ). Gradient elution (200 mM-500 mM NaCl) yielded pure protein. This protein was concentrated and dialyzed against dialysis buffer (20 mM Tris-HCl, 2 mM TCEP) overnight. The protein was aliquoted and frozen at −80° C. until further use.
“NT” means not tested; “ND” means not determinable.

Row | SMILES | TRP Activity (EC1.5) | Emax [%]
1 | Cc1cc(-c2ccc3c(n2)N(C(=O)Nc2cccnn2)[C@H]2CCN3C2)ccn1 [(9S)-5-(2-methylpyridin-4-yl)-N-(pyridazin-3-yl)-1,6,8-triazatricyclo[7.2.1.0 {2,7}]dodeca-2(7),3,5-triene-8-carboxamide] | B (B (EC1.5 1-25 μM)) | > 150
2 | Cc1cc(-c2ccc3c(n2)N(C(=O)Nc2cccnn2)[C@H]2CCCN3C2)ccn1 [(9S)-5-(2-methylpyridin-4-yl)-N-(pyridazin-3-yl)-1,6,8-triazatricyclo[7.3.1.0 {2,7}]trideca-2(7),3,5-triene-8-carboxamide] | A (A (EC1.5<1 μM)) | > 150
3 | Cc1cc(-c2ccc3c(n2)N(C(=O)Nc2ccnnc2)[C@H]2CCN3C2)ccn1 [(9S)-5-(2-methylpyridin-4-yl)-N-(pyridazin-4-yl)-1,6,8-triazatricyclo[7.2.1.0^{2,7}]dodeca-2,4,6-triene-8-carboxamide] | B (B (EC1.5 1-25 μM)) | > 150
4 | Cc1cc(-c2ccc3c(n2)N(C(=O)Nc2ccccn2)[C@H]2CCCN3C2)ccn1 [(9S)-5-(2-methylpyridin-4-yl)-N-(pyridin-2-yl)-1,6,8-triazatricyclo[7.3.1.0 {2,7}]trideca-2(7),3,5-triene-8-carboxamide] | A (A (EC1.5<1 μM)) | > 150
5 | Cc1cc(-c2ccc3c(n2)N(C(=O)NCc2cccnc2)[C@H]2CCN3C2)ccn1 [(9S)-5-(2-methylpyridin-4-yl)-N-(pyridin-3-ylmethyl)-1,6,8-triazatricyclo[7.2.1.0 {2,7}]dodeca-2(7),3,5-triene-8-carboxamide] | B (B (EC1.5 1-25 μM)) | > 150
6 | Cc1cc(-c2ccc3c(n2)N(C(=O)Nc2ccncn2)[C@H]2CCCN3C2)ccn1 [(9S)-5-(2-methylpyridin-4-yl)-N-(pyrimidin-4-yl)-1,6,8-triazatricyclo[7.3.1.0 {2,7}]trideca-2(7),3,5-triene-8-carboxamide] | A (A (EC1.5<1 μM)) | > 150
7 | Cc1cc(-c2ccc3c(n2)N(C(=O)Nc2cncnc2)[C@H]2CCN3C2)ccn1 [(9S)-5-(2-methylpyridin-4-yl)-N-(pyrimidin-5-yl)-1,6,8-triazatricyclo[7.2.1.0 {2,7}]dodeca-2(7),3,5-triene-8-carboxamide] | C (C (EC1.5>25 μM)) | > 150
8 | Cc1cc(-c2ccc3c(n2)N(C(=O)Nc2cncnc2)[C@H]2CCCN3C2)ccn1 [(9S)-5-(2-methylpyridin-4-yl)-N-(pyrimidin-5-yl)-1,6,8-triazatricyclo[7.3.1.0 {2,7}]trideca-2(7),3,5-triene-8-carboxamide] | B (B (EC1.5 1-25 μM)) | > 150
9 | Cc1cc(-c2ccc3c(n2)N(C(=O)Nc2cccc4nccnc24)[C@H]2CCN3C2)ccn1 [(9S)-5-(2-methylpyridin-4-yl)-N-(quinoxalin-5-yl)-1,6,8-triazatricyclo[7.2.1.0 {2,7}]dodeca-2,4,6-triene-8-carboxamide] | A (A (EC1.5<1 μM)) | > 150
10 | Cc1cc(-c2ccc3c(n2)N(C(=O)NCCc2ccccn2)[C@H]2CCN3C2)ccn1 [(9S)-5-(2-methylpyridin-4-yl)-N-[2-(pyridin-2-yl)ethyl]-1,6,8-triazatricyclo[7.2.1.0 {2,7}]dodeca-2(7),3,5-triene-8-carboxamide hydrochloride] | C (C (EC1.5>25 μM)) | < 150
11 | Cc1cc(-c2ccc3c(n2)N(C(=O)NCCc2cccnc2)[C@H]2CCN3C2)ccn1 [(9S)-5-(2-methylpyridin-4-yl)-N-[2-(pyridin-3-yl)ethyl]-1,6,8-triazatricyclo[7.2.1.0 {2,7}]dodeca-2(7),3,5-triene-8-carboxamide hydrochloride] | C (C (EC1.5>25 μM)) | < 150
